These results are taken from patent publication US11266626B2, “Reduction of ER-MAM-localized APP-C99 and methods of treating alzheimer's disease” (THE TRUSTEES OF COLUMBIA UNIVERSITY IN THE CITY OF NEW YORK, priority 2015, dated 2022).

For test [1], the system named is PS-DKO cells. Kind of test: Conversion of fluorescent sphingomyelin to ceramide in mitochondrial membranes (TLC). It is filed as cell-based, mouse. Conditions: PS-DKO (presenilin-mutant) cells; BI. As to the method: SMase activity was therefore measured in MEFs lacking APP and APLP2 (APP-DKO) (28). […] To test this, SMases was measured in PSDKO cells treated with α- and β-secretase inhibitors, to abrogate the production of C83 and C99, respectively. As controls, the γ-secretase products Aβ and AICD were also added back (FIG. 9G). […] For corroboration in vivo, PS-DKO and control cells were incubated with a fluorescent analog of sphingomyelin and analyzed its conversion to ceramide.
To explore this further, PS-DKO and control cells were incubated with a fluorescent sphingomyelin (FL-SM) and its localization and conversion to ceramide in mitochondrial membranes was analyzed by thin-layer chromatography (TLC).
To explore this further, we incubated PS-DKO and control cells with fluorescent sphingomyelin and analyzed its localization and conversion to ceramide in mitochondrial membranes by thin-layer chromatography (TLC).

Test [2] concerns PS-DKO cells. Kind of test: Seahorse analysis of mitochondrial respiration (OCR). Conditions: BI 100 nM, myriocin 5 μM, TAPI-1 5 μM, 12-16 h, Aβ40:Aβ42 10:1, 6 ng/ml. It is filed as cell-based, mouse. The protocol: (§1) Respirometry of cultured cells was performed using the XF24e Extracellular Flux Analyzer (Seahorse Bioscience). Oxygen consumption was measured in basal conditions (Seahorse media with 25 mM glucose and 2 mM pyruvate) and after the sequential addition of 1 μM oligomycin (Complex V inhibitor), 0.75 μM FCCP (uncoupler) and 1 μM rotenone/1 μM antimycin A (Complex I and Complex III inhibitors respectively).
(§2) Respirometry of cultured cells was performed using the XF24e Extracellular Flux Analyzer (Seahorse Bioscience). Oxygen consumption was measured in basal conditions (Seahorse media with 25 mM glucose and 2 mM pyruvate) and after the sequential addition of 1 μM oligomycin (complex V inhibitor), 0.75 μM FCCP (uncoupler), and 1 μM rotenone/1 μM antimycin A (complex I and complex III inhibitors, respectively). All results were averages of five or more biological replicates. Every biological replicate consisted of three technical replicates. For every technical replicate, we plated equal number of cells (25,000 cell/well when MEFs were used, and 50,000 cells/well when human primary fibroblasts were analyzed). The number of cells was also counted after every respirometry assay to correct for cell death. All oxygen consumption (OCR) data were normalized by the number of viable cells or by protein quantity when isolated mitochondria were used.

The subject of another test is PS-DKO MEFs. Kind of test: Uptake of Bodipy-labeled fluorescent cholesterol. It is filed as cell-based, mouse. The protocol: To measure uptake of fluorescent cholesterol, cultured cells were incubated with 1 μM Bodipylabeled cholesterol (Avanti Lipids; 810255P) for 12 h. Alternatively, Bodipy-cholesterol was complexed with methyl-β-cyclodextrin at a 1:10 molar ratio of sterol:cyclodextrin and added to cultured cells to a final concentration of 25 μg/ml for 6-8 h. Cholesterol droplets were visualized by microscopy and fluorescence was quantified by ImageJ.

For test [3], the system named is cortical neurons and astrocytes from PS1-KI M146V mice. Kind of test: Staining of lipid droplets with LipidTox Green. It is filed as cell-based, mouse. Conditions: 100 nM BI. The protocol: (§3) Quantification of total cholesterol and cholesteryl esters was performed using the Cholesterol/Cholesteryl Ester Quantitation kit from Calbiochem (428901). Staining of lipid droplets Staining of lipid droplets was performed using HCS LipidTox™ Deep Green neutral lipid stain (Invitrogen H34475) according to the manufacturer's instructions. Lipid droplet staining was quantified using ImageJ. The different values represent the product of the intensity and the area covered by the fluorescent signal above background in every cell examined.
(§4) Staining of lipid droplets was performed using HCS LipidTox™ Deep Green neutral lipid stain (Invitrogen H34475) according to the manufacturer's instructions. Lipid droplet staining was quantified using ImageJ. The different values represent the product of the intensity and the area covered by the fluorescent signal above background in every cell examined.

Test [4] concerns PS-DKO cells. In words: Staining of lipid droplets with LipidTox Green. It is filed as cell-based, mouse. Conditions: BI 100 nM, desipramine 10 μM, GW4869 5 μM, 12-16 h, Gleevec 10 μM. The protocol:
as §3, §4

For the next test, the system named is FAD fibroblasts. Kind of test: Seahorse analysis of mitochondrial respiration (OCR). It is filed as cell-based, human. Conditions: FAD patient fibroblasts; BI. The protocol:
as §1, §2

The next test deals with APP-DKO cells. The description is as above. It is filed as cell-based, mouse. Conditions: APP-DKO cells expressing C99; DAPT added. The protocol: as §1
To analyze the effect of Aβ addition, a mix of Aβ40/Aβ42 at a ratio 10:1 was added to the cultured cells to a final concentration of 6000 pg/ml for 24 h. For Aβ42 oligomer formation, 5 mM of Aβ42 in DMSO was diluted to 100 μM in ice-cold media, vortexed for 30 seconds, and incubated at 4° C. for 24 h. Aβ42 Oligomers were added to the cultured cells to a final concentration of 5 or 10 μM for 24 h.
as §2
To analyze the effect of Aβ addition, a mix of Aβ40/Aβ42 at a ratio 10:1 was added to the cultured cells to a final concentration of 6,000 pg/ml for 24 h. For Aβ42 oligomer formation, 5 mM of Aβ42 in DMSO was diluted to 100 μM in ice-cold media, vortexed for 30 s, and incubated at 4° C. for 24 h. […]

The test system of test [5] is SH-SY5Y cells. The description is as above. It is filed as cell-based, human. Conditions: 10 μM DAPT vs untreated. As to the method:
as §1, §2

Test [6] deals with SH-SY5Y cells. Kind of test: Staining of lipid droplets with LipidTox Green. Conditions: DAPT 10 μM alone or with BI 100 nM. The class given is cell-based, human.

Entries after “also recorded” stand apart in the source; their conditions may differ.

With `C[C@@H](NC(=O)c1cc(C(=O)N[C@@H](Cc2ccccc2)[C@H](O)CNC2CC2)cc(N(C)S(C)(=O)=O)c1)c1ccccc1` [BI, β-secretase inhibitor IV], the “increase in ceramide derived from fluorescent sphingomyelin at mitochondria” value in the test with PS-DKO cells [1] is “this increase disappeared; also recorded: the elevated deposition of ceramide at mitochondria disappeared”. The “mitochondrial respiration (initial oxygen consumption rate, OCR)” value in the test on PS-DKO cells [2] is “reversed the defect in mitochondrial respiration; also recorded: rescued the respiration defects”. Further, the “uptake of Bodipy-labeled fluorescent cholesterol” value in the test with PS-DKO MEFs was “reduced uptake”. The “number of lipid droplets (LDs)” value (in test [3]; with PS-DKO cells [4]) was “reduced the number of LDs” throughout. Also, the “mitochondrial respiration (OCR)” value with FAD fibroblasts was “reversed the defect in mitochondrial respiration; also recorded: rescued the respiration defects”.
Turning to `C[C@H](NC(=O)Cc1cc(F)cc(F)c1)C(=O)N[C@H](C(=O)OC(C)(C)C)c1ccccc1` [DAPT], the “mitochondrial respiration (OCR)” value is recorded as “accentuated” in the test with APP-DKO cells and “significant decrease in respiration; also recorded: significant reduction in respiration” with SH-SY5Y cells [5]. Also, the “accumulation of lipid droplets (LDs)” value in the test with SH-SY5Y cells [6] was “LDs also accumulated; also recorded: Lipid droplets also accumulated”.
